Data reported in ChEMBL document CHEMBL1201862, “PubChem BioAssay data set” (2004).
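Method: 48-hour compound exposure of cells in 96-well plates, five concentrations, linear interpolation of endpoints. GI50 is the concentration that inhibits growth by half.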 The source made the active and inactive calls. Rule as the data show it: active = GI50 up to about 1.1 µM and inactive = higher.

Columns and labels:
Test in all cases: inhibition of tumour cell growth, NCI panel, 48 h
LOX IMVI = tested on: LOX IMVI
NCI-H460 = tested on: NCI-H460
SW-620 = tested on: SW-620
OVCAR-5 = tested on: OVCAR-5
HT-29 = tested on: HT-29
CCRF-CEM = tested on: CCRF-CEM
MDA-N = tested on: MDA-N
HOP-62 = tested on: HOP-62
MDA-MB-231 = tested on: MDA-MB-231
HCT-15 = tested on: HCT-15
SF-539 = tested on: SF-539
TK-10 = tested on: TK-10
UACC-62 = tested on: UACC-62
ACHN = tested on: ACHN
OVCAR-8 = tested on: OVCAR-8
HCC 2998 = tested on: HCC 2998
UO-31 = tested on: UO-31
MDA-MB-435 = tested on: MDA-MB-435
UACC-257 = tested on: UACC-257
NCI-H522 = tested on: NCI-H522

| SMILES | GI50 (LOX IMVI) | GI50 (NCI-H460) | GI50 (SW-620) | GI50 (OVCAR-5) | GI50 (HT-29) | GI50 (CCRF-CEM) | GI50 (MDA-N) | GI50 (HOP-62) | GI50 (MDA-MB-231) | GI50 (HCT-15) | GI50 (SF-539) | GI50 (TK-10) | GI50 (UACC-62) | GI50 (ACHN) | GI50 (OVCAR-8) | GI50 (HCC 2998) | GI50 (UO-31) | GI50 (MDA-MB-435) | GI50 (UACC-257) | GI50 (NCI-H522) |
| --- | --- | --- | --- | --- | --- | --- | --- | --- | --- | --- | --- | --- | --- | --- | --- | --- | --- | --- | --- | --- |
| Cc1[nH]c(C)c(CN(C)C)c1CN(C)C | > 100 µM (inactive) | > 100 µM (inactive) | > 100 µM (inactive) | > 100 µM (inactive) | > 100 µM (inactive) | > 100 µM (inactive) | > 100 µM (inactive) | > 100 µM (inactive) | > 100 µM (inactive) | > 100 µM | > 100 µM (inactive) | > 100 µM (inactive) | > 100 µM (inactive) | > 100 µM (inactive) | > 100 µM (inactive) | > 100 µM (inactive) | > 100 µM (inactive) | > 100 µM (inactive) | > 100 µM (inactive) | > 100 µM (inactive) |
| CN1CCc2cc(N)cc3c2C1Cc1ccc(O)c(O)c1-3 (stereo not given) | 18.6 µM (inactive) | 30.5 µM (inactive) | 31.8 µM (inactive) | 85.1 µM (inactive) | 34.4 µM (inactive) | 3.75 µM (inactive) | 34.7 µM (inactive) | 49.3 µM (inactive) | 75 µM (inactive) | 36.4 µM | 38 µM (inactive) | 24.7 µM (inactive) | 23.7 µM (inactive) | 25.8 µM (inactive) | 30.7 µM (inactive) | 12.6 µM (inactive) | 42.8 µM (inactive) | 36.8 µM (inactive) | 16.3 µM (inactive) | 27.2 µM (inactive) |
| CC(=N/NC(N)=S)/C(C)=N/NC(N)=S | > 100 µM (inactive) | > 100 µM (inactive) | > 100 µM (inactive) | > 100 µM (inactive) | > 100 µM (inactive) | > 100 µM (inactive) | > 100 µM (inactive) | > 100 µM (inactive) | > 100 µM (inactive) | > 100 µM | > 100 µM (inactive) | > 100 µM (inactive) | > 100 µM (inactive) | > 100 µM (inactive) | > 100 µM (inactive) | > 100 µM (inactive) | > 100 µM (inactive) | > 100 µM (inactive) | > 100 µM (inactive) | > 100 µM (inactive) |
| CCCCCCOc1ccc(C(=O)NOC)cc1 | > 100 µM (inactive) | > 100 µM (inactive) | > 100 µM (inactive) | > 100 µM (inactive) | > 100 µM (inactive) | > 100 µM (inactive) | > 100 µM (inactive) | > 100 µM (inactive) | 80.5 µM (inactive) | > 100 µM | > 100 µM (inactive) | > 100 µM (inactive) | > 100 µM (inactive) | > 100 µM (inactive) | > 100 µM (inactive) | > 100 µM (inactive) | 30.3 µM (inactive) | > 100 µM (inactive) | > 100 µM (inactive) | > 100 µM (inactive) |
| COC(=O)C1CCOC(C)N1C(=O)OC(C)(C)C (stereo not given) | > 100 µM (inactive) | > 100 µM (inactive) | > 100 µM (inactive) | > 100 µM (inactive) | > 100 µM (inactive) | > 100 µM (inactive) | > 100 µM (inactive) | > 100 µM (inactive) | > 100 µM (inactive) | > 100 µM | > 100 µM (inactive) | > 100 µM (inactive) | > 100 µM (inactive) | > 100 µM (inactive) | > 100 µM (inactive) | > 100 µM (inactive) | > 100 µM (inactive) | > 100 µM (inactive) | > 100 µM (inactive) | > 100 µM (inactive) |
| C/C(=N\NC(=S)N1CCOCC1)c1nc2cccnc2[nH]1 | 29.4 µM (inactive) | 31.4 µM (inactive) | 43 µM (inactive) | 59.6 µM (inactive) | 37.2 µM (inactive) | 30.3 µM (inactive) | > 100 µM (inactive) | 24.9 µM (inactive) | 28.9 µM (inactive) | 53.5 µM | 19.3 µM (inactive) | 31.8 µM (inactive) | 37.7 µM (inactive) | 25.4 µM (inactive) | 21.4 µM (inactive) | 78.3 µM (inactive) | 17.5 µM (inactive) | > 100 µM (inactive) | 26 µM (inactive) | 18.8 µM (inactive) |
| CNc1ncccc1Nc1cc(=O)n2c3cccnc3n(C)c2c1 | > 100 µM (inactive) | > 100 µM (inactive) | > 100 µM (inactive) | > 100 µM (inactive) | 58.3 µM (inactive) | > 100 µM (inactive) | > 100 µM (inactive) | 36.8 µM (inactive) | 13.7 µM (inactive) | > 100 µM | 73.5 µM (inactive) | 53.2 µM (inactive) | > 100 µM (inactive) | > 100 µM (inactive) | > 100 µM (inactive) | > 100 µM (inactive) | > 100 µM (inactive) | > 100 µM (inactive) | > 100 µM (inactive) | 61 µM (inactive) |
